Results published in patent US20230063794A1, “STAPLED TRIAZOLE CO-AGONISTS OF THE GLUCAGON AND GLP-1 RECEPTORS” (Merck Sharp & Dohme LLC, priority 2019, published 2023).
Starred links: 1 amine or outer side, 2 acyl side, 3 side chain; linkers in the order of their positions; H or OH if unused. Positions of bridges follow the written chain, without caps; N, C: chain ends. Non-standard residues stand in square brackets, D forms with d. Residues, ends and D or L forms follow the SMILES beside them. Groups on a side chain read outwards from the residue. Triazole bridges read from a SMILES are 1,4-linked. *: point of attachment. Lys(N3) = [N-]=[N+]=NCCCC[C@H](N)C(=O)O; γGlu = O=C(O)[C@H](CCC(=O)[*:2])N[*:1]; Palmitoyl = CCCCCCCCCCCCCCCC(=O)*; dPra = C#CC[C@@H](N)C(=O)O; Nle = CCCC[C@H](N)C(=O)O; Aib = CC(C)(N)C(=O)O

Key:
human GCGR = target: T1, human GCGR (Homo sapiens, UniProt P47871); experiment: cAMP activity assay in cells expressing human GCGR; format: cell-based; settings: ratio of human GCGR EC50 to human GLP1R EC50
T1 construct: expressed in transfected cells; grown under Blasticidin and Hygromycin selection
T1 sequence (P47871 26-477): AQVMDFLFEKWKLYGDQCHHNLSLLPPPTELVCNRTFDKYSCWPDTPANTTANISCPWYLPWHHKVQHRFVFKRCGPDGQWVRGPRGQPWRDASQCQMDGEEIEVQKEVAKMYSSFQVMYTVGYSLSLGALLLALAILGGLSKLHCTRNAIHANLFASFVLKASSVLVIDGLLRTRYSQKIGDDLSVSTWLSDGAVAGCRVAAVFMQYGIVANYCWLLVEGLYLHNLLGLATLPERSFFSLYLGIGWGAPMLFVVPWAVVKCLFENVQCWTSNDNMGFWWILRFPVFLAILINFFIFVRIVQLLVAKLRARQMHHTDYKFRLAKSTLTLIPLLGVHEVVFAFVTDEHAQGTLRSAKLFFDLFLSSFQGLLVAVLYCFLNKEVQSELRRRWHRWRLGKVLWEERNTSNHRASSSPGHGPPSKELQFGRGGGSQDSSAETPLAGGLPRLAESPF
Procedure: (§1) Activity of the peptides at the Glucagon receptor (GCGR) and GLP-1 receptor (GLP1R) was measured in a cAMP activity assay.
(§2) Peptides were dissolved in 100% DMSO and serially diluted to generate 10 point titrations. The peptide solutions were then transferred into 384-well assay plates (150 nL/well). Assay ready frozen cells expressing human GLP1R or human GCGR were suspended in growth media consisting of DMEM medium (GIBCO), 10% FBS (GIBCO), 1× NEAA(GIBCO), 1× P/S (GIBCO), 10 ug/ml Blasticidin (GIBCO) and 200 μg/mL Hygromycin (GIBCO). Cells were then diluted in assay buffer consisting of PBS (GIBCO), 7.5% BSA (Perkin Elmer), 100 μM RO 20-1724 (Sigma), with or without 20% human serum (MP Biomedical). The cell suspensions (15 μL) were then added to the assay plates containing the peptide solutions (30,000 cells/well for human GCGR; 10,000 cells/well for human GLP1R). The cells were incubated for 1 hour at room temperature in the dark. Production of cAMP was determined using HitHunter™ cAMPXS kits (DiscoverX) following manufacturer protocol. The plates were incubated for overnight at room temperature in the dark. Luminescence was measured using an EnVision Multilabel plate reader (Perkin Elmer). Native GLP-1 and Glucagon (Bachem) are used as control peptides. EC50 values were calculated using uses a 4 parameter logistic fit based on the Levenberg-Marquardt algorithm.

human GLP1R = target: T2, human GLP1R (Homo sapiens, UniProt P43220); experiment: cAMP activity assay in cells expressing human GLP1R; format: cell-based; settings: cAMP production, HitHunter cAMPXS, 1 hour; assay buffer with or without 20% human serum (not given)
T2 construct: expressed in transfected cells; grown under Blasticidin and Hygromycin selection
T2 sequence (P43220 24-463): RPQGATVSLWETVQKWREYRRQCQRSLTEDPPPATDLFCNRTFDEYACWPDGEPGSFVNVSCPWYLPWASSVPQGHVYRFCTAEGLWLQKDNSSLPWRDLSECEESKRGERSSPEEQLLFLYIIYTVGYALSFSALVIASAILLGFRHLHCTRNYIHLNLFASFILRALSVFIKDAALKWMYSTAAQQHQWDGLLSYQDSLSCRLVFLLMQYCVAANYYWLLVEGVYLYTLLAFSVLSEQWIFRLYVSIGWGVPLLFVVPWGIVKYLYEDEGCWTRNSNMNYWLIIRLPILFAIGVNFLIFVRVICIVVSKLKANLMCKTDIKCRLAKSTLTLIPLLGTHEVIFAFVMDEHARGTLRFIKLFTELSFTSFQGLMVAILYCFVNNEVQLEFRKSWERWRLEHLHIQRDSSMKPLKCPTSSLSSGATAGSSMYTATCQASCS
Procedure: as §1, §2

hGCGR/hGLP1R (hTone) (human GCGR)	EC50 (human GLP1R)	SMILES
1.13	0.042 nM	CCCCCCCCCCCCCCCC(=O)N[C@@H](CCC(=O)N[C@@H](CCC(=O)NCCCC[C@H](NC(=O)[C@H](CC(=O)O)NC(=O)[C@H](CO)NC(=O)[C@@H](NC(=O)[C@H](Cc1ccccc1)NC(=O)[C@@H](NC(=O)CNC(=O)[C@H](CCC(N)=O)NC(=O)C(C)(C)NC(=O)[C@@H](N)Cc1c[nH]cn1)[C@@H](C)O)[C@@H](C)O)C(=O)N[C@@H](CO)C(=O)N[C@@H](CCCCN)C(=O)N[C@@H](Cc1ccc(O)cc1)C(=O)N[C@@H](CC(C)C)C(=O)N[C@@H](CC(=O)O)C(=O)N[C@@H]1Cc2cn(nn2)CCCC[C@@H](C(=O)N[C@@H](CC(=O)O)C(=O)N[C@@H](Cc2ccccc2)C(=O)N[C@H](C(=O)N[C@@H](CCC(N)=O)C(=O)N[C@@H](Cc2c[nH]c3ccccc23)C(=O)N[C@@H](CC(C)C)C(=O)N[C@@H](CCCC)C(=O)N[C@@H](CC(=O)O)C(=O)N[C@H](C(N)=O)[C@@H](C)O)C(C)C)NC(=O)[C@H](C)NC(=O)[C@H](C)NC(=O)[C@H](CCCNC(=N)N)NC1=O)C(=O)O)C(=O)O [compound 16] (H-H[Aib]QGTFTSDK([γGlu-γGlu-Palmitoyl])SKYLD[dPra]RAA[Lys(N3)]DFVQWL[Nle]DT-NH2; triazole 16-20; N-terminus assumed)
0.95	0.042 nM	CCCCCCCCCCCCCCCC(=O)N[C@@H](CCC(=O)N[C@@H](CCC(=O)NCCCC[C@H](NC(=O)[C@H](CC(=O)O)NC(=O)[C@H](CO)NC(=O)[C@@H](NC(=O)[C@H](Cc1ccccc1)NC(=O)[C@@H](NC(=O)CNC(=O)[C@H](CCC(N)=O)NC(=O)[C@@H](CO)NC(=O)[C@@H](N)Cc1c[nH]cn1)[C@@H](C)O)[C@@H](C)O)C(=O)N[C@@H](CO)C(=O)N[C@@H](CCCCN)C(=O)N[C@@H](Cc1ccc(O)cc1)C(=O)N[C@@H](CC(C)C)C(=O)N[C@@H](CC(=O)O)C(=O)N[C@@H](CCC(=O)O)C(=O)N[C@@H](CCCNC(=N)N)C(=O)N[C@@H](C)C(=O)N[C@@H](C)C(=O)N[C@@H]1Cc2cn(nn2)CCCC[C@@H](C(=O)N[C@@H](Cc2c[nH]c3ccccc23)C(=O)N[C@@H](CC(C)C)C(=O)N[C@@H](CC(C)C)C(=O)N[C@@H](CC(=O)O)C(=O)N[C@H](C(N)=O)[C@@H](C)O)NC(=O)[C@H](C(C)C)NC(=O)[C@H](Cc2ccccc2)NC(=O)[C@H](CC(=O)O)NC1=O)C(=O)O)C(=O)O [compound 7] (H-H[dS]QGTFTSDK([γGlu-γGlu-Palmitoyl])SKYLDERAA[dPra]DFV[Lys(N3)]WLLDT-NH2; triazole 20-24)
